For data set [1], the system named is tubulin. Nature of the data set: Tubulin binding of noscapine and previously reported noscapinoids (literature values). The conditions noted are these: Table 1; calculated from KD, ΔGbind = RT ln KD, T = 298 K. The procedure:
Here ⟨ ⟩ represent the ensemble average, b represents the bound form of the ligand, f represents the free form of the ligand, and α, β, and γ are the coefficients. U vdw, U elec, and U cav are the van der Waals, electrostatic, and cavity energy terms in the SGB continuum solvent model. The cavity energy term, U cav, is proportional to the exposed surface area of the ligand. Various energy parameters included in equation 1 were calculated from the docked complex corresponding to each analogue using Liaison package as described previously. The average LIE energy terms were used for building the binding affinity model and estimation of binding free energies of noscapine derivatives. The α, β, and γ LIE fitting parameters were determined using Minitab statistical package (version 16.0, Minitab Inc.) by fitting the experimental binding affinities of training set molecules. A dataset consisting of 7 noscapine derivatives (compounds: 1, 2a-f; Figure 2) with known experimental binding affinities was used as a training set.

Data set [2] deals with tubulin. Conditions: cited from earlier work.
In data set [3] the target is T1, tubulin (Bos taurus, UniProt P81947+Q6B856).
T1 construct: Tubulin devoid of microtubule-associated proteins (MAPs) was purified from bovine brain; from tissue; host or cells: bovine brain
T1 sequence (Q6B856 whole entry): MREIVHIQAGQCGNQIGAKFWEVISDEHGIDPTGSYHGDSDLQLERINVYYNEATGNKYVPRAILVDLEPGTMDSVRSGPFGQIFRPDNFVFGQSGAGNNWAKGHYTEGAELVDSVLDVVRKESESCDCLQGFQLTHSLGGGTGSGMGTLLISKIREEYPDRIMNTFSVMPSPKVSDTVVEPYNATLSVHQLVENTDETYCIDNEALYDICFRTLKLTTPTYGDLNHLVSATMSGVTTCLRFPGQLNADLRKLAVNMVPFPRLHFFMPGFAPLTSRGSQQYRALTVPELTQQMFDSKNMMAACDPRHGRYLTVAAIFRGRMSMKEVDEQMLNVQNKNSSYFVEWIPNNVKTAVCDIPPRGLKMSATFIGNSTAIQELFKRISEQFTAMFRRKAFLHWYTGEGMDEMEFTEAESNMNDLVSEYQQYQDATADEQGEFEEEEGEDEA
T1 sequence (P81947 whole entry): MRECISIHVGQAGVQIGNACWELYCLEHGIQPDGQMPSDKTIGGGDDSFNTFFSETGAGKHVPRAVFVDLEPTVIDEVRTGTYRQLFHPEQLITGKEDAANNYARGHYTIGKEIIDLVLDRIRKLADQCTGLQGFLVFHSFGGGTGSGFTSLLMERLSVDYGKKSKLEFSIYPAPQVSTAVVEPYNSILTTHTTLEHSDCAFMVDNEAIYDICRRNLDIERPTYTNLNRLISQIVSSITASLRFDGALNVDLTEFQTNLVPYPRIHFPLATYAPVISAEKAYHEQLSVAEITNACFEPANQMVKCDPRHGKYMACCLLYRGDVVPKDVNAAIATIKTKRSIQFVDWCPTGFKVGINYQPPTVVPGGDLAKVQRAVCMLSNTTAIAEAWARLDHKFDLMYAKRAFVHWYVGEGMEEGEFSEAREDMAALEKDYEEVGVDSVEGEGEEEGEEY
The data set can be described thus: Tubulin binding assay (quenching of intrinsic tryptophan fluorescence). Also on record: species or system bovine. The conditions noted are these: for Kd: 2 µM tubulin, PEM buffer pH 6.8, 37 °C, 45 min, mean ± S.D.; for Experimental ΔGbind: calculated from KD, ΔGbind = RT ln KD, T = 298 K. The procedure: Tubulin devoid of microtubule-associated proteins (MAPs) was purified from bovine brain by cycles of temperature-dependent polymerization and depolymerization as described previously followed by phosphocellulose chromatography. The concentration of the tubulin was determined by the method of Bradford using BSA as the standard. Purified tubulin was quickly frozen as drops in liquid nitrogen and stored at - 80 °C until used.
Noscapinoids quench the […] intrinsic tryptophan fluorescence of tubulin in a concentration-dependent fashion as described previously. This has allowed an easy method for measuring the tubulin-noscapinoids interactions. Briefly, the compounds 5a, 6a-j (0-200 µM) were incubated with 2 µM tubulin in PEM buffer (100 mM PIPES, pH 6.8, 3 mM MgSO4, and 1 mM EGTA) at 37 °C for 45 min. After incubation, the samples were excited at 295 nm. The relative intrinsic fluorescence intensity of the tubulin was then monitored in the absence and presence of the compound 5a, 6a-j using a Varian Cary Eclipse Fluorescence Spectrophotometer (Agilent Technologies, CA, USA). The emission readings were recorded at 335 nm. We used a 0.3 cm path-length cuvette to minimize the inner filter effects caused by the absorbance of the noscapinoids. In addition, the inner filter effects were corrected using a formula F corrected = F observed·antilog [(A ex + A em)/2], where A ex is the absorbance at the excitation wavelength and A em is the absorbance at the emission wavelength. The equilibrium dissociation constant (KD) was determined by the formula: 1/a = KD/[free ligand] + 1, where a is the fractional occupancy and [free ligand] is the concentration of free ligand. The fractional occupancy (a) was determined by the formula a = ΔF/ΔF max, where ΔF is the change in fluorescence intensity when tubulin and its ligand are in equilibrium and ΔF max is the value of maximum fluorescence change when tubulin is completely bound with its ligand. ΔF max was calculated by plotting 1/ΔF versus 1/ligand, using total ligand concentration as the first estimate of free ligand concentration. Three independent experiments were performed for each noscapinoid.

For data set [4], the system named is human lymphoblast cell line (CEM). Nature of the data set: In vitro cell proliferation assay (SRB), CEM. The format is cell-based. Conditions: 72 h, mean ± S.D. The procedure:
(§1) The cell proliferation assay was performed in 96-well plates as described previously. A panel of four cancer cell lines of different tissues of origins, namely: human lung adenocarcinoma epithelial cell line (A549), human lymphoblast cell line (CEM), human cervix cell line (HeLa) and human breast epithelial cell line (MCF-7) were studied. These cell lines were obtained from the National Repository of Animal Cell Culture, National Centre for Cell Sciences, Pune (NCCS), India. Briefly, 2 x10^3 cells were seeded in each well and were incubated with gradient concentrations of 5a, 6a-j compounds for 72 h. The cells were then fixed with 50% trichloroacetic acid and stained with 0.4% sulforhodamine B (SRB) dissolved in 1% acetic acid. Cells were then washed with1% acetic acid to remove excess (unbound) SRB. The protein-bound SRB was dissolved with 10 mM Tris base and the absorbance at 564 nm was determined using a SPECTRAmax PLUS 384 microplate spectrophotometer.

In data set [5] the test system is human cervix cell line (HeLa). Nature of the data set: In vitro cell proliferation assay (SRB), HeLa. The conditions noted are these: 72 h, mean ± S.D. The format is cell-based. The procedure: as §1
In data set [6] the test system is human lung adenocarcinoma epithelial cell line (A549). Nature of the data set: In vitro cell proliferation assay (SRB), A549. The format is cell-based. Conditions: 72 h, mean ± S.D. The procedure:
as §1

Data set [7] has as its system human breast epithelial cell line (MCF-7). Nature of the data set: In vitro cell proliferation assay (SRB), MCF-7. The format is cell-based. Conditions: MCF7, 72 h, mean ± S.D. The procedure:
as §1

Another data set has as its system MCF-7 cells. The data set can be described thus: Cell cycle analysis by flow cytometry (propidium iodide). Conditions: MCF-7, 25 µM. The format is cell-based, human. The procedure: The flow cytometric evaluation of the cell cycle status was performed as described previously. Briefly, cells (2 x 10^6) treated with the noscapinoids up to 72 h were centrifuged, washed twice with cold PBS, and fixed in 70% ethanol. Tubes containing the cell pellets were stored at 4 °C for minimum of 24 h. Cells were then centrifuged at 1000 x g for 10 min and the supernatant was discarded. The pellets were washed twice with 5 ml of PBS and then stained with 0.5 ml of propidium iodide (0.1% of Pl + 0.6% Triton-X in PBS) and 0.5 ml of RNase A (2 mg/ml) for 45 minutes in dark. Samples were then analyzed on a FACS Calibur flow cytometer ([…]).
On the technique in general: A flow cytometer gives signals particle by particle.

[8] abbreviates: Table 1, training set with known experimental binding affinities, mean ± S.D., read-out: KD value.

Like-named read-outs stand apart in the source and are kept apart here.

In general, Kd refers to the concentration at which binding is half-saturated. For `COc1ccc2c(c1OC)C(=O)O[C@@H]2[C@H]1c2c(c(F)c3c(c2OC)OCO3)CCN1C` [Compound 2a], the “Experimental ΔGbind” value in the data set with tubulin [1] is given as -5.587 kcal/mol. Also, the Kd at tubulin [2] (setting [8]) was 81 ± 8 µM.

As a reminder, the IC50 is the concentration at which inhibition is half-maximal. One may read the melting point as the temperature, or range, at which the solid turns liquid. `COC(=O)CN1CCc2cc3c(c(OC)c2[C@@H]1[C@H]1OC(=O)c2c1ccc(OC)c2OC)OCO3` [Compound 6i, Methyl 2-((R)-5-((S)-4,5-dimethoxy-3-oxo-1,3-dihydroisobenzofuran-1-yl)-4-methoxy-7,8-dihydro-[1,3]dioxolo[4,5-g]isoquinolin-6(5H)-yl)acetate] had a melting point of 155 °C. Besides, at tubulin [3], the dissociation constant Kd is 79 ± 8 µM and the “Experimental ΔGbind” value is listed as -5.602 kcal/mol. The compound further had a half-maximal inhibitory concentration (IC50) in [4] of 9.5 ± 0.7 µM. Inhibition in [5] was half-maximal at 22.3 ± 1.2 µM (IC50). It took 45.4 ± 2.5 µM to reach half-maximal inhibition in data set [6] (IC50). Half-maximal inhibition in data set [7] (IC50) was put at 36 ± 1.9 µM. In the data set on MCF-7 cells, the “Cell cycle parameters % G0/G1, 24 hours” value was 19.57%; the “Cell cycle parameters % G2/M, 24 hours” value is 63.38%; the “Cell cycle parameters % S, 24 hours” value is listed as 4.62%; the “Cell cycle parameters % Sub-G1, 24 hours” value is listed as 12.25%. In the data set on MCF-7 cells, the “Cell cycle parameters % G0/G1, 72 hours” value is 14.37%; the “Cell cycle parameters % G2/M, 72 hours” value is listed as 37.15%; the “Cell cycle parameters % S, 72 hours” value is listed as 6.43%; the “Cell cycle parameters % Sub-G1, 72 hours” value is 40.18%.

For the compound `COc1ccc2c(c1OC)C(=O)O[C@@H]2[C@H]1c2c(c(N=[N+]=[N-])c3c(c2OC)OCO3)CCN1C` [Compound 2f], in the data set on tubulin [1], the “Experimental ΔGbind” value is recorded as -6.628 kcal/mol. At tubulin [2] (setting [8]), the Kd was 14 ± 1 µM.

`COc1ccc2c(c1OC)C(=O)O[C@@H]2[C@H]1c2c(cc3c(c2OC)OCO3)CCN1C` [Compound 1, noscapine]: the “Experimental ΔGbind” value in the data set with tubulin [1] is on record as -5.246 kcal/mol. The compound also gave a half-inhibitory concentration (IC50) in data set [4] of 14.5 ± 2.5 µM. In [5], the IC50 turned out to be 24 ± 2.9 µM. In data set [6], this compound registered a concentration for half-maximal inhibition (IC50) of 72.9 ± 4.6 µM. Half-maximal inhibition in data set [7] (IC50) required 42.3 ± 2.7 µM. Also, in the data set on MCF-7 cells, the “Cell cycle parameters % G0/G1, 24 hours” value was determined as 19.48%; the “Cell cycle parameters % G2/M, 24 hours” value was found to be 62.38%; the “Cell cycle parameters % S, 24 hours” value is reported as 4.19%; the “Cell cycle parameters % Sub-G1, 24 hours” value is given as 7.24%. Also, in the data set on MCF-7 cells, the “Cell cycle parameters % G0/G1, 72 hours” value is on record as 19.05%; the “Cell cycle parameters % G2/M, 72 hours” value was 37.36%; the “Cell cycle parameters % S, 72 hours” value was 8.53%; the “Cell cycle parameters % Sub-G1, 72 hours” value is reported as 30.62%. Further, in the data set on tubulin [2], the “Binding stoichiometry, noscapine molecule per tubulin dimer” value is listed as 0.95 ± 0.02. Further, the Kd on tubulin [2] (values quoted in the text for comparison, read-out: Equilibrium dissociation constant (KD)) is 144 ± 1 µM.

Regarding `COc1ccc2c(c1OC)C(=O)O[C@@H]2[C@H]1c2c(c(Cl)c3c(c2OC)OCO3)CCN1C` [Compound 2b], the “Experimental ΔGbind” value with tubulin [1] is given as -6.006 kcal/mol. Further, the dissociation constant (Kd) at tubulin [2] (setting [8]) was 40 ± 8 µM.

In the case of `COc1ccc2c(c1OC)C(=O)O[C@@H]2[C@H]1c2c(c([N+](=O)[O-])c3c(c2OC)OCO3)CCN1C` [Compound 2e], the “Experimental ΔGbind” value in the data set on tubulin [1] was -5.551 kcal/mol. The Kd at tubulin [2] (setting [8]) was 86 ± 6 µM.

For `COc1ccc2c(c1OC)C(=O)O[C@@H]2[C@H]1c2c(c(Br)c3c(c2OC)OCO3)CCN1C` [Compound 2c, 9-bromonoscapine], the “Experimental ΔGbind” value in the data set with tubulin [1] is on record as -5.827 kcal/mol. Moreover, the Kd on tubulin [2] (setting [8]) was 54 ± 9.1 µM.

`COc1ccc2c(c1OC)C(=O)O[C@@H]2[C@H]1c2c(cc3c(c2OC)OCO3)CCN1Cc1ccc([N+](=O)[O-])cc1` [Compound 6c, (S)-6,7-dimethoxy-3-((R)-4-methoxy-6-(4-nitrobenzyl)-5,6,7,8-tetrahydro-[1,3]dioxolo[4,5-g]isoquinolin-5-yl)isobenzofuran-1(3H)-one] gave a melting point of 154 °C. In addition, at tubulin [3], the Kd was 91 ± 8 µM and the “Experimental ΔGbind” value is reported as -5.518 kcal/mol. Moreover, the IC50 in data set [4] amounted to 10 ± 0.8 µM. The compound also displayed an IC50 in data set [5] of 23.7 ± 1.5 µM. For the same compound, half-maximal inhibition in data set [6] (IC50) required 49 ± 2.5 µM. Also, 38.2 ± 2.5 µM corresponded to half-maximal inhibition in data set [7] (IC50). Besides, in the data set on MCF-7 cells, the “Cell cycle parameters % G0/G1, 24 hours” value is given as 20.72%; the “Cell cycle parameters % G2/M, 24 hours” value is recorded as 63.49%; the “Cell cycle parameters % S, 24 hours” value is listed as 4.85%; the “Cell cycle parameters % Sub-G1, 24 hours” value is listed as 8.08%. Moreover, in the data set with MCF-7 cells, the “Cell cycle parameters % G0/G1, 72 hours” value worked out at 15.38%; the “Cell cycle parameters % G2/M, 72 hours” value turned out to be 38.41%; the “Cell cycle parameters % S, 72 hours” value was determined as 8.27%; the “Cell cycle parameters % Sub-G1, 72 hours” value worked out at 36.73%.

With `COc1ccc2c(c1OC)C(=O)O[C@@H]2[C@H]1c2c(c(I)c3c(c2OC)OCO3)CCN1C` [Compound 2d], in the data set on tubulin [1], the “Experimental ΔGbind” value is listed as -6.360 kcal/mol. Also, the equilibrium dissociation constant (Kd) at tubulin [2] (setting [8]) was 22 ± 4 µM.

For `CCOC(=O)CN1CCc2cc3c(c(OC)c2[C@@H]1[C@H]1OC(=O)c2c1ccc(OC)c2OC)OCO3` [Compound 6j, Ethyl 2-((R)-5-((S)-4,5-dimethoxy-3-oxo-1,3-dihydroisobenzofuran-1-yl)-4-methoxy-7,8-dihydro-[1,3]dioxolo[4,5-g]isoquinolin-6(5H)-yl)acetate], the melting point turned out to be 92 °C. On tubulin [3], the equilibrium dissociation constant (Kd) is 228 ± 10 µM and the “Experimental ΔGbind” value is given as -4.973 kcal/mol. Moreover, the half-maximal inhibitory concentration (IC50) in data set [4] came to 13.6 ± 1.3 µM. Besides, in data set [5], the midpoint of inhibition, the IC50, lay at 32.4 ± 2.4 µM. Besides, in [6], half-maximal inhibition (IC50) required 72.3 ± 3.5 µM. This compound gave an IC50 in data set [7] of 52.6 ± 3.8 µM. Besides, in the data set with MCF-7 cells, the “Cell cycle parameters % G0/G1, 24 hours” value was 25.71%; the “Cell cycle parameters % G2/M, 24 hours” value stood at 66.17%; the “Cell cycle parameters % S, 24 hours” value was 3.09%; the “Cell cycle parameters % Sub-G1, 24 hours” value is given as 8.29%. Also, in the data set on MCF-7 cells, the “Cell cycle parameters % G0/G1, 72 hours” value came to 22.16%; the “Cell cycle parameters % G2/M, 72 hours” value was 39.48%; the “Cell cycle parameters % S, 72 hours” value came out at 8.63%; the “Cell cycle parameters % Sub-G1, 72 hours” value is listed as 27.24%.

(Values after publication PMC3804772, “Rational Design, Synthesis, and Biological Evaluation of Third Generation α-Noscapine Analogues as Potent Tubulin Binding Anti-Cancer Agents” (PLoS ONE, 2013).)
